Test results taken from US12479850B2, “Compound having Axl and c-Met kinase inhibitory activity, preparation thereof and application thereof” (Shanghai Institute of Materia Medica, Chinese Academy of …, priority 2019, dated 2025).
pIC50: −log10 of the molar value.

Columns and labels:
[1] = tested on: MKN45 cells; assay: MKN45 cell proliferation assay (SRB); type: cell-based; details: Homo sapiens, MKN-45, 72 hours, read-out: IC50 value of MKN45 cell proliferation inhibition
Description: 2. MKN45 Cell Proliferation Effect Assay
MKN45 is a gastric cancer cell line. MET gene amplification leads to continuous activation of Met cell line, which is a c-Met-dependent tumor cell line.
The inhibitory effect of the compound on the proliferation of MKN45 cells was detected by sulforhodamine B (SRB) protein staining method. The specific steps were as follows: MKN45 cells in the logarithmic growth phase are inoculated into a 96-well culture plate at an appropriate density. After being cultured overnight, compounds of different concentrations were added for 72 hours. Three duplicate wells for each concentration, and a solvent control group (Negative control) were set. After the action was over, the culture solution was discarded, 10% (w/v) trichloroacetic acid (100 μL/well) was added, and fixed at 4° C. for 1 hour, then washed with distilled water for five times. After drying at room temperature, 100 μL of SRB solution was added to each well, incubated and dyed at room temperature for 15 min, washed off the unbound SRB with 1% glacial acetic acid. After drying at room temperature, 10 mM Tris solution was added to each well, and full wavelength microplate SpectraMax 190 was used to test OD value at the wavelength of 515 nm. […]

[2] = tested on: BaF3-TEL-AXL cells; assay: BaF3-TEL-AXL cell proliferation assay (CCK-8); type: cell-based; details: 72 hours, read-out: IC50 value on BaF3-TEL-AXL cell proliferation inhibition
Description: 1. BaF3-TEL-AXL Cell Proliferation Effect Assay
TEL-AXL fusion protein in BaF3-TEL-AXL cells was expressed in the cytoplasm and was an Axl-dependent sensitive cell line.
The inhibitory effect of the compound on the proliferation of BaF3-TEL-AXL cells was detected by the CCK-8 Cell Counting Kit (Dojindo). The specific steps were as follows: the BaF3-TEL-AXL cells in the logarithmic growth phase were inoculated into the 96-well culture plate at a appropriate density, after being cultured overnight, different concentrations of compounds were added for 72 hours, and a solvent control group (negative control) was set. After the compound had acted on the cells for 72 hours, the effect of the compound on cell proliferation was detected by CCK-8 cell counting kit (Dojindo), 10 μL CCK-8 reagent was added to each well, placed in an incubator at 37° C. for 2-4 hours, and the full wavelength microplate reader SpectraMax 190 was used to read, and the measurement wavelength was 450 nm.
The inhibition rate of the compound on the growth of tumor cells was calculated by the following formula (%): Inhibition rate (%)=(OD of control well−OD of administration well)/OD of control well×100%

[3] = target: T1, Axl kinase domain recombinant protein (Homo sapiens, UniProt P30530); assay: ELISA kinase activity assay, Axl
T1 sequence (P30530 536-807 limits assumed): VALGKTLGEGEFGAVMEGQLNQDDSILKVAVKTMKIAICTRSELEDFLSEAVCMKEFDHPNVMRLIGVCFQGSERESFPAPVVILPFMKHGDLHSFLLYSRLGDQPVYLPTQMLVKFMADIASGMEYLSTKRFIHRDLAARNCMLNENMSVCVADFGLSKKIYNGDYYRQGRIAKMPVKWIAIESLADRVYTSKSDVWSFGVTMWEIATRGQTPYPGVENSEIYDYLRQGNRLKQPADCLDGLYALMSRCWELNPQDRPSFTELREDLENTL

[4] = target: c-Met kinase domain recombinant protein (Homo sapiens, UniProt P08581); assay: ELISA kinase activity assay, c-Met
c-Met kinase domain recombinant protein, sequence (P08581 1078-1345 limits assumed): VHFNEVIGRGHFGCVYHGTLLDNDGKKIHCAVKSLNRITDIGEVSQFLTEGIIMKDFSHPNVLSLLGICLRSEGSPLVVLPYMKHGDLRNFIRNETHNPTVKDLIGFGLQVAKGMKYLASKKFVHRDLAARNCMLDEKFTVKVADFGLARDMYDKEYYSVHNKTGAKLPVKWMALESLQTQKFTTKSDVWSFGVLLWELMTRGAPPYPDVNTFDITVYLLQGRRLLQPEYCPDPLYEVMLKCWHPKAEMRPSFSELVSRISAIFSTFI

SMILES | pIC50 [1] | pIC50 [2] | pIC50 [3] | pIC50 [4]
CC(C)n1cc(C(=O)Nc2ccc(Oc3cc4cnn(C)c4cc3-c3cn[nH]c3)c(F)c2)c(=O)n(-c2ccc(F)cc2)c1=O [No. 50, N-(3-fluoro-4-((1-methyl-6-(1H-pyrazol-4-yl)-1H-indazol-5-yl)oxy)phenyl)-3-(4-fluorophenyl)-1-isopropyl-2,4-dioxo-1,2,3,4-tetrahydropyrimidin-5-carboxamide] | > 7.00 | > 8.00 | > 8.00 | 7.00 to 8.00
CC(C)n1cc(C(=O)Nc2ccc(Oc3ccnc4[nH]ccc34)c(F)c2)c(=O)n(-c2ccc(F)cc2)c1=O [No. 41, N-(4-((1H-pyrrolo[2,3-b]pyridin-4-yl)oxy)-3-fluorophenyl)-3-(4-fluorophenyl)-1-isopropyl-2,4-dioxo-1,2,3,4-tetrahydropyrimidin-5-carboxamide] | > 7.00 | > 8.00 | > 8.00 | > 8.00
COc1ccc(-n2c(=O)c(C(=O)Nc3ccc(Oc4ccnc(-c5cnn(C)c5)c4)c(F)c3)cn(C(C)C)c2=O)cc1 [No. 16, N-(3-fluoro-4-((2-(1-methyl-1H-pyrazol-4-yl)pyridin-4-yl)oxy)phenyl)-1-isopropyl-3-(4-methoxyphenyl)-2,4-dioxo-1,2,3,4-tetrahydropyrimidin-5-carboxamide] |  |  | < 7.00 | < 7.00
